In the NIST ThermoML archive (doi:10.1021/acs.jced.5b00943):

Conditions: Liquid, Ebulliometric method (Recirculating still)

C=CC(C)C#N (centres undefined) [2-methyl-3-butenenitrile]
Conditions	vapor or sublimation pressure [kPa]
297.57 K	2.701
304.35 K	3.664
309.86 K	4.608
315.95 K	6.064
318.68 K	6.731
321.34 K	7.521
324.85 K	8.987
327.15 K	9.9
331.76 K	11.75
335.25 K	13.48
339.53 K	15.75
343.65 K	18.68
352.65 K	25.35
356.05 K	29.21
359.56 K	33.21
364.85 K	38.55
369.25 K	44.68
373.25 K	50.01
376.09 K	55.48
379.75 K	62.68
382.83 K	68.94
387.65 K	79.23
391.95 K	90.16
394.25 K	95.76
